Results published in ChEMBL document CHEMBL4715854, “Discovery of Roblitinib (FGF401) as a Reversible-Covalent Inhibitor of the Kinase Activity of Fibroblast Growth Factor Receptor 4” (J Med Chem, 2020).
≈ marks a conversion by molar mass, not a printed value.

Columns and labels:
[1] = Thermodynamic solubility of compound in phosphate buffer at pH 6.8 measured after 15 mins by shake-flask method based LC-HRMS analysis; type: physicochemical; conditions: read-out: Therm_solubility
[2] = Clearance in Crl:CD (SD) rat at 1 mg/kg, iv or 3 mg/kg, po measured up to 24 hrs by LC-MS/MS analysis; type: ADME, organism-based; conditions: in vivo
[3] = Permeability of the compound in human Caco-2 cells assessed as compound recovery at 10 uM measured after 2 hrs by LC/MS/MS analysis; type: ADME, cell-based; conditions: read-out: Drug recovery
[4] = Drug metabolism in rat liver microsome assessed as reduction of aldehyde group at 10 mM measured after 15 mins in presence of NADPH by LC-MS analysis; type: ADME; conditions: microsomes, 10000 µM
[5] = Drug metabolism in human liver microsome assessed as reduction of aldehyde group at 10 mM measured after 15 mins in presence of NADPH by LC-MS analysis; type: ADME; conditions: microsomes, 10000 µM
[6] = Lipophilicity, log D of the compound in 1-octanol at pH 7.4 by potentiometric titration method; type: physicochemical
[7] = Half-life in Crl:CD (SD) rat at 1 mg/kg, iv or 3 mg/kg, po measured upto 24 hrs by LC-MS/MS analysis; type: ADME, organism-based; conditions: in vivo
[8] = Volume of distribution at steady state in Crl:CD (SD) rat at 1 mg/kg, iv or 3 mg/kg, po measured upto 24 hrs by LC-MS/MS analysis; type: ADME, organism-based; conditions: in vivo, read-out: Vdss
[9] = Oral bioavailability in Crl:CD (SD) rat at 3 mg/kg measured upto 24 hrs by LC-MS/MS analysis; type: ADME, organism-based; conditions: Crl:CD (SD), in vivo
[10] = Dose normalized AUC in Crl:CD (SD) rat at 3 mg/kg, po measured up to 24 hrs by LC-MS/MS analysis; type: ADME, organism-based; conditions: in vivo
[11] = Dose normalized AUC in Crl:CD (SD) rat at 1 mg/kg, iv measured up to 24 hrs by LC-MS/MS analysis; type: ADME, organism-based; conditions: in vivo
[12] = Oral bioavailability in C57BL/6 mouse at 3 mg/kg measured upto 24 hrs by LC-MS/MS analysis; type: ADME, organism-based; conditions: in vivo
[13] = Half-life in C57BL/6 mouse at 1 mg/kg, iv or 3 mg/kg, po measured upto 24 hrs by LC-MS/MS analysis; type: ADME, organism-based; conditions: in vivo
[14] = Volume of distribution at steady state in C57BL/6 mouse at 1 mg/kg, iv or 3 mg/kg, po measured upto 24 hrs by LC-MS/MS analysis; type: ADME, organism-based; conditions: in vivo, read-out: Vdss
[15] = Clearance in C57BL/6 mouse at 1 mg/kg, iv or 3 mg/kg, po measured upto 24 hrs by LC-MS/MS analysis; type: ADME, organism-based; conditions: in vivo
[16] = Plasma concentration in mouse xenografted with human RH30 cells at 30 mg/kg, po by LC-MS/MS analysis; type: ADME, organism-based; conditions: in vivo
[17] = Plasma concentration in mouse xenografted with human RH41 cells at 30 mg/kg, po by LC-MS/MS analysis; type: ADME, organism-based; conditions: in vivo
[18] = Aqueous solubility of compound at pH 6.8; type: physicochemical; conditions: buffer, time 15 min
[19] = Oral bioavailability in Crl:CD (SD) rat at 3 mg/kg administered as nanosuspension formulated in CMC-5/Tween 80 measured up to 24 hrs by LC-MS/MS analysis; type: ADME, organism-based; conditions: in vivo
[20] = Drug metabolism in human Caco-2 cells assessed as depletion of parent compound at 10 uM measured after 1 hr by LC-MS/MS analysis; type: ADME, cell-based; conditions: read-out: Drug degradation
[21] = Drug metabolism in human Caco-2 cells assessed as oxidation of aldehyde group at 10 uM incubated from 30 to 120 mins by LC-MS/MS analysis; type: ADME, cell-based; conditions: caco-2, 10 µM, time 30-120 min
[22] = Drug metabolism in human Caco-2 cells assessed as reduction of aldehyde group at 10 uM incubated from 30 to 120 mins by LC-MS/MS analysis; type: ADME, cell-based; conditions: caco-2, 10 µM, time 30-120 min

| SMILES | recovery at 2 h, 10 µM [3] [%] | Drug metabolism [4] | Drug metabolism [5] | other results |
| --- | --- | --- | --- | --- |
| O=Cc1ccc2cccc(C(=O)Nc3ccc(C(F)(F)F)cn3)c2n1 |  |  |  | solubility thermodynamic at […] [1]: < 2.9 µM |
| COCCNc1cc(NC(=O)N(C)c2ccc(CN3CCN(C)CC3=O)c(C=O)n2)ncc1C#N |  |  |  | clearance [2]: 88 mL/min/kg |
| O=Cc1ccc2c(n1)N(C(=O)Nc1ccc(C(F)(F)F)cn1)CCC2 | < 10 | Metabolite_Detected | Metabolite_Detected | logD [6]: 4.2; solubility thermodynamic at […] [1]: 4.9 µM (≈ 1.72 µg/mL) |
| COCCNc1cc(NC(=O)N2CCCc3cc(CN(C)C(C)=O)c(C=O)nc32)ncc1C#N |  |  |  | half-life [7]: 27.7 h; Vd [8]: 8.6 L/kg; clearance [2]: 16 mL/min/kg; bioavailability [9]: 26%; solubility thermodynamic at […] [1]: 8 µM (≈ 3.72 µg/mL); AUC/dose [10]: 599 nM·h; AUC/dose [11]: 2307 nM·h |
| COCCNc1cc(NC(=O)N2CCCc3cc(CO)c(C=O)nc32)ncc1C#N | < 10 | Metabolite_Detected | Metabolite_Detected | bioavailability [12]: 22%; half-life [13]: 0.8 h; Vd [14]: 1.6 L/kg; clearance [15]: 77 mL/min/kg; concentration [16]: < 40 nM; concentration [17]: < 40 nM |
| CC(=O)N(C)Cc1cc2c(nc1C=O)N(C(=O)Nc1ccc(C#N)cn1)CCC2 |  |  |  | solubility at […] [18]: 18 µM (≈ 7.06 µg/mL) |
| COC[C@H](C)Nc1cc(NC(=O)N2CCCc3cc(CN4CCN(C)CC4=O)c(C=O)nc32)ncc1C#N |  |  |  | clearance [2]: 19 mL/min/kg |
| COCCNc1cc(NC(=O)N2CCCc3cc(C(F)F)c(C=O)nc32)ncc1C#N | < 10 | Metabolite_Detected | Metabolite_Detected | bioavailability [19]: 80%; half-life [7]: 2.3 h; Vd [8]: 4.7 L/kg; clearance [2]: 40 mL/min/kg; bioavailability [9]: 7%; solubility thermodynamic at […] [1]: < 6 µM; AUC/dose [10]: 774 nM·h; AUC/dose [11]: 964 nM·h |
| N#Cc1cnc(NC(=O)N2CCCc3ccc(C=O)nc32)nc1 | < 10 | Metabolite_Detected | Metabolite_Detected | metabolised at 1 h, 10 µM [20]: 80%; Drug metabolism [21]: Metabolite_Detected; Drug metabolism [22]: Metabolite_Detected |
| COCCNc1cc(NC(=O)N2CCCc3cc(-c4cccnc4)c(C=O)nc32)ncc1C#N | < 10 | Metabolite_Detected | Metabolite_Detected |  |
| CC(C)Oc1cc(NC(=O)N2CCc3ccc(C=O)nc32)ncc1C#N | < 10 | Metabolite_Detected | Metabolite_Detected |  |
| N#Cc1ccc(NC(=O)N2CCCc3cc(CO)c(C=O)nc32)nc1 | < 10 | Metabolite_Detected | Metabolite_Detected |  |
| COCCNc1cc(NC(=O)N2CCCc3cc(-n4cnc(C)c4)c(C=O)nc32)ncc1C#N | < 10 | Metabolite_Detected | Metabolite_Detected | solubility at […] [18]: < 4 µM |
| COCCOc1cc(NC(=O)N2CCCc3cc(COC)c(C=O)nc32)ncc1C#N | < 10 | Metabolite_Detected | Metabolite_Detected |  |
| N#Cc1ccc(NC(=O)N2CCCc3cc(Cl)c(C=O)nc32)nc1 | < 10 | Metabolite_Detected | Metabolite_Detected |  |
| COCCOc1cc(NC(=O)N2CCCc3ccc(C=O)nc32)ncc1C#N | < 10 | Metabolite_Detected | Metabolite_Detected |  |
| COCCOc1cc(NC(=O)N2CCCc3cc(C(F)F)c(C=O)nc32)ncc1C#N | < 10 | Metabolite_Detected | Metabolite_Detected |  |
| N#Cc1cnc(NC(=O)N2CCCc3cc(CO)c(C=O)nc32)cc1O[C@@H]1CCOC1 | < 10 | Metabolite_Detected | Metabolite_Detected |  |
| O=Cc1nc2c(C(=O)Nc3ccc(C(F)(F)F)cn3)cccc2cc1O | < 10 | Metabolite_Detected | Metabolite_Detected |  |
| COCCOc1cc(NC(=O)N2CCCc3cc(Br)c(C=O)nc32)ncc1C#N | < 10 | Metabolite_Detected | Metabolite_Detected |  |
| O=Cc1ccc2c(n1)N(C(=O)Nc1ccc(C(F)(F)F)cn1)CCO2 | < 10 | Metabolite_Detected | Metabolite_Detected |  |
| COCCNc1cc(NC(=O)N2CCCc3cc(C4CCN(C5COC5)CC4)c(C=O)nc32)ncc1C#N | < 10 | Metabolite_Detected | Metabolite_Detected |  |
| COC[C@@H](C)Nc1cc(NC(=O)N2CCCc3cc(CN4CCN(C)CC4=O)c(C=O)nc32)ncc1C#N |  |  |  | clearance [2]: 35 mL/min/kg |
| COCCNc1cc(NC(=O)N(CCOC)c2cccc(C=O)n2)ncc1C#N | < 10 | Metabolite_Detected | Metabolite_Detected |  |
| COCCOc1cc(NC(=O)N2CCCc3cc(CO)c(C=O)nc32)ncc1C#N | < 10 | Metabolite_Detected | Metabolite_Detected | half-life [7]: 2 h; Vd [8]: 2.5 L/kg; clearance [2]: 52 mL/min/kg; bioavailability [9]: 24%; solubility thermodynamic at […] [1]: 11 µM (≈ 4.53 µg/mL); AUC/dose [10]: 194 nM·h |
| COCCNc1cc(NC(=O)N2CCCc3cc(N4CCOCC4=O)c(C=O)nc32)ncc1C#N | < 10 | Metabolite_Detected | Metabolite_Detected |  |
| COCCNc1cc(NC(=O)N2CCCc3cc(-c4cnc(C)s4)c(C=O)nc32)ncc1C#N | < 10 | Metabolite_Detected | Metabolite_Detected | half-life [7]: 3.5 h; Vd [8]: 1.5 L/kg; clearance [2]: 8 mL/min/kg; bioavailability [9]: 46%; solubility thermodynamic at […] [1]: < 6 µM; solubility at […] [18]: < 4 µM; AUC/dose [10]: 2174 nM·h; AUC/dose [11]: 4703 nM·h |
| COc1cc2c(nc1C=O)N(C(=O)Nc1ccc(C#N)cn1)CCC2 | < 10 | Metabolite_Detected | Metabolite_Detected |  |
